Data on 80 molecules can be found in the METLIN SMRT retention time set (Domingo-Almenara et al. 2019).

Each structure is given as a SMILES string.

The series can be described thus: gradient 5% acetonitrile 3 min, to 50% in 2 min, to 85% in 15 min, held 3 min, 100 µL/min. The settings on record: column: Zorbax Extend-C18 2.1 x 50 mm; eluents: water / acetonitrile, 0.1% formic acid. The method, boiled down:
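Retention times come from adduct peaks that were picked computationally and then checked by hand. The standards, pure and pooled in mixtures of ~100 molecules, were run on a Zorbax Extend-C18 column (2.1 × 50 mm, 1.8 μm) at 100 μL/min with water and acetonitrile, each with 0.1% formic acid. Detection was by quadrupole time-of-flight mass spectrometry in positive and negative ionization mode, with a dead volume of 40 μL and a dwell volume of 900 μL.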
`CCc1noc(NC(C)=O)c1-c1ccc(OC)c(S(=O)(=O)Nc2ccc(Cl)cc2C)c1`: the RP-LC retention time is 841 s.
Consider `COc1ccc(-c2csc(NC(=O)Nc3ccc(Cl)c(Cl)c3)n2)cc1Br`, for which the RP-LC retention time turned out to be 1280 s.
With `COCC(=O)N1CCCn2cc(-c3cccc(C#N)c3)nc21` the figure was 675 s; with `CN(C)S(=O)(=O)N1CCc2nc(NC(=O)c3cccs3)sc2C1`, 729 s; with `COc1ccc(NC(=O)c2[nH]c3cc(C)sc3c2CN(C)C)c(OC)c1`, 678 s.
`COc1ccccc1CNc1nc2ccccc2nc1NS(=O)(=O)c1cccs1`: the RP-LC retention time is 1050 s.
Consider `CCN1CCn2cc(S(=O)(=O)Nc3cccc(OC)c3)cc2C1=O`, for which the RP-LC retention time was found to be 700 s.
Molecule `CN1C(=O)c2ccccc2Oc2ccc(C(=O)N3CCCCC3)cc21` gave an RP-LC retention time of 807 s.
Turning to `CNC(=O)c1nc(C(=O)NCCc2ccc(Cl)cc2)cs1`, the RP-LC retention time turned out to be 771 s.
For `Cc1ccc(-c2noc(Cn3ccn(-c4cc(C)cc(C)c4)c(=O)c3=O)n2)cc1`, the RP-LC retention time is 612 s.
`CN(CC1CCOC1)C(=O)Nc1ccccc1` (stereo not given) came in with an RP-LC retention time of 653 s.
In turn, `Cc1noc(C)c1S(=O)(=O)NCC(c1cccs1)S(=O)(=O)c1ccc(F)cc1` (stereo not given) had an RP-LC retention time of 847 s.
Regarding `CCN(CCN(C)C)C(=O)c1cc2c(s1)N(CC)CCCC2`, the RP-LC retention time was found to be 599 s.
In the case of `CCn1cnc(S(=O)(=O)N2CCCC(C(=O)NC3CCCCCC3)C2)c1` (stereo not given), the RP-LC retention time came out at 740 s.
With `CCn1cnc(S(=O)(=O)N2CCC(C(=O)NCc3ccccc3OC)CC2)c1` the figure was 902 s; with `O=C(NCc1ccccc1)c1cc2c(=O)n(Cc3ccccc3)ccc2s1`, 896 s; with `CCOC(=O)NCc1nc2ccccc2n1Cc1c(F)cccc1Cl`, 613 s.
`CCc1ccc(S(=O)(=O)Nc2ccc(-c3cn4cccc(C)c4n3)cc2)cc1` gave an RP-LC retention time of 667 s.
As to `CC#C[C@@H](CC(=O)O)c1ccc(OCc2ccc(CN3CCC4(C=Cc5ccccc54)CC3)s2)cc1`, the RP-LC retention time was found to be 915 s.
As for `NS(=O)(=O)c1ccc(NC(=O)c2ccc(S(=O)(=O)c3ccc(Cl)cc3)s2)cc1`, the RP-LC retention time was 877 s.
With `Cc1cc(OCC(O)Cn2c(C3CC(=O)N(C(C)(C)C)C3)nc3ccccc32)cc(C)c1Cl` (stereo not given), the RP-LC retention time turned out to be 878 s.
In turn, `Cn1cccc1C(=O)N1CCN(c2cc(-c3ccc(Cl)cc3)[nH]n2)CC1` gave an RP-LC retention time of 832 s.
The molecule `CC1CCCCN1CCNC(=O)c1c2c(cn(-c3ccc(Cl)cc3)c1=O)C(=O)CC(C)(C)C2` (stereo not given) had an RP-LC retention time of 710 s.
With `CCNC(=O)Nc1ccc2c(c1)CN(S(=O)(=O)C(C)C)CCO2` the figure was 676 s; with `CCCN(C(=O)Nc1cccc(C)c1C)c1nc(-c2ccc(C3CCCCC3)cc2)cs1`, 619 s; with `CC(C)NC(=O)c1cc(C2CC2)[nH]n1`, 644 s.
`CCOC(=O)c1cccc(NC(=O)CCc2ccc3nc(CC)[nH]c3c2)c1` displayed an RP-LC retention time of 638 s.
Regarding `O[C@@H]1C[C@@H](c2nnc3n2CCN(Cc2cccc(F)c2)C3)N(Cc2cccnc2)C1`, the RP-LC retention time was 588 s.
Regarding `CCCCC1CCC(C(=O)Nc2nc(-c3ccc4c(c3)N(C)C(=O)CO4)c(C)s2)CC1` (stereo not given), the RP-LC retention time came out at 1410 s.
As for `Cc1ccc2c(c1)N(S(C)(=O)=O)CCC(C(=O)Nc1cccc(C)c1C)O2` (stereo not given), the RP-LC retention time turned out to be 945 s.
As for `COc1ccccc1CNC(=O)Cn1c(N2CCOCC2)nc(C)cc1=O`, the figure is 654 s; as for `CCc1cc(=O)n(CC(=O)Nc2ccc(Br)cc2F)c(N2CCOCC2)n1`, 853 s.
As for `CC(C)n1c(=O)oc2cc(-c3noc(-c4cc(F)ccc4Cl)n3)ccc21`, the figure is 1230 s; as for `COc1ccc2nc(C(=O)NC(C)c3ccc(F)cc3)cn2n1` (stereo not given), 821 s.
Consider `O=C(Nc1ccc(C(F)(F)F)cc1)NC1CCN(c2ccccc2)C1=O` (stereo not given), for which the RP-LC retention time was determined as 912 s.
For the molecule `Cc1cc(C)cc(C(=O)N2CCN(c3nc(C)cc(N4CCCC4)n3)CC2)c1`, the RP-LC retention time amounted to 735 s.
With `COCCC1(N(C)C)CCN(S(=O)(=O)c2ccc(C#N)cc2)CC1` the figure was 613 s; with `CNC(=O)C1CCCN(C(=O)Nc2ccc(NC(=O)Nc3ccc(OC)cc3)cc2)C1` (stereo not given), 633 s.
On to `CS(=O)(=O)N(C1CCOCC1)C1CN(C(=O)c2cc(F)ccc2F)C1`, for which the RP-LC retention time came out at 687 s.
In turn, `Cc1nc(-c2ccc(N3CCN(C(=O)c4cc(F)ccc4F)CC3)nc2)sc1C` displayed an RP-LC retention time of 890 s.
As to `CCc1ccc(CNC(=O)C2CCN(c3ncnc4c3oc3ccccc34)CC2)cc1`, the RP-LC retention time stood at 842 s.
The molecule `O=C(Nc1ccc(F)cc1F)C1(CCO)CCN(Cc2ccccc2)C1` (stereo not given) registered an RP-LC retention time of 620 s.
Regarding `CC(C)c1ccc(OCC(=O)Nc2cnn(C)c(=O)c2N2CCOCC2)cc1`, the RP-LC retention time worked out at 952 s.
On to `Cc1ccc(C(=O)NC(C)CCc2ccccc2)cc1NC(=O)C1=CSCCO1` (stereo not given), for which the RP-LC retention time was found to be 955 s.
Molecule `CCC(=O)Nc1ccc(CCc2nc3ccc(C(=O)NC(c4cccs4)C(C)C)cc3[nH]2)cc1` (stereo not given) registered an RP-LC retention time of 702 s.
With `O=C(Nc1ccsc1-c1nnc(C2CC2)o1)c1ccoc1` the figure was 1080 s; with `COc1ccc(C(=O)Nc2ccc3c(c2)Sc2ncccc2C(=O)N3C)c(OC)c1`, 706 s; with `Cc1c(C(=O)N2CCCC2)cnn1-c1cc(-c2nc(C(C)(C)C)no2)ccn1`, 1030 s.
Turning to `O=C(Cc1cccc(Cl)c1)N1CCN(c2nc(CN3CCOCC3)cs2)CC1`, the RP-LC retention time is 644 s.
In the case of `CN1CCN(C(=O)C2CCN(S(=O)(=O)c3cc(-c4noc(C5CC5)n4)cs3)CC2)CC1`, the RP-LC retention time was found to be 643 s.
In turn, `CCOC(=O)C1CCN(c2ncc(C(=O)Nc3ccccc3)c(N)n2)CC1` came in with an RP-LC retention time of 705 s.
`Cc1cccc(OCC(=O)N(Cc2ccc(Br)o2)C2CCS(=O)(=O)C2)c1C` (stereo not given) gave an RP-LC retention time of 960 s.
As for `CCCN(C)CC1(O)CCC2(CCN(C(=O)C3CCCC3)CC2)CC1`, the figure is 584 s.
Consider `NC(=O)[C@H]1CCCCc2c1[nH]c1ccc(Cl)cc21`, for which the RP-LC retention time came out at 819 s.
As for `Cc1ccc(Cn2nc3ccc(S(=O)(=O)N4CCCCC4)cn3c2=O)cc1`, the RP-LC retention time was determined as 952 s.
In the case of `Cc1nnc(-c2coc(S(=O)(=O)N3CCCCC3)c2)o1`, the RP-LC retention time stood at 767 s.
Molecule `Cc1ccc(NC(=O)Cn2c(C(C)C)nc3c(c2=O)CN(Cc2ccccc2)CC3)cc1C` registered an RP-LC retention time of 738 s.
`CCN1CCCn2cc(S(=O)(=O)N3CCCCCC3)cc2C1=O` gave an RP-LC retention time of 747 s.
As for `Cc1cccc(-c2nnc(SCC(=O)N3CCC(C)CC3)o2)c1`, the figure is 969 s.
As to `O=C(Cn1cnc2nc(N3CCCC(C(=O)NC4CC4)C3)sc2c1=O)Nc1ccccc1Cl` (stereo not given), the RP-LC retention time stood at 686 s.
As for `O=C(c1ccsc1)N1CCn2c(nnc2-c2ccccc2)C1`, the figure is 611 s; as for `COc1cc(OC)c(NC(=O)Cc2nnc(-c3cnccn3)o2)cc1Cl`, 647 s; as for `O=C1NC(=O)N2CCSC2(Cc2ccccc2)N1` (stereo not given), 670 s.
In turn, `CCOc1cccc(CN2C[C@@H]3C(=O)N(CCCN4CCCC4=O)C(=O)[C@@H]3C2)c1` displayed an RP-LC retention time of 617 s.
As for `COc1ccc2nc(-c3ccc(C)c(NS(=O)(=O)c4cc(C)ccc4OC)c3)cn2n1`, the figure is 812 s; as for `CCn1ccc2c(cc(C(=O)Nc3ccc(OC)c(Cl)c3)n2C)c1=O`, 1330 s; as for `Cn1c(=O)c(=O)n(C)c2cc(N3CCOCC3)c(NC(=O)c3ccco3)cc21`, 663 s.
Turning to `COc1ccc(NC(=O)c2cccn2-c2cccnc2)cc1OC`, the RP-LC retention time is 678 s.
As for `O=C(Cn1nc2n(c1=O)CCCC2)NCc1ccccc1Cl`, the RP-LC retention time was 669 s.
As for `O=C(NCCn1c(-c2ccccc2)nc2cccnc21)NCc1ccc(F)cc1`, the figure is 684 s; as for `Cc1ccccc1S(=O)(=O)N1CCC2(CC1)NCCN=C2NCc1ccc(F)cc1`, 730 s; as for `COC(=O)c1cc(OCC(=O)Nc2ccccc2F)c2ccccc2n1`, 799 s.
Regarding `Cc1occc1C(=O)N1CCc2nn(CC3CC3)c(=O)n2CC1`, the RP-LC retention time was 646 s.
With `Cc1ccc(-c2cc3c(=O)n(Cc4noc(CN5CCC(C)CC5)n4)ccn3n2)cc1` the figure was 713 s; with `Cc1nsc2ncc(C(=O)N3CCOCC3)c(N3CCC(C(=O)Nc4ccccc4F)CC3)c12`, 758 s.
`COc1ccc(Cn2nc3ccc(S(=O)(=O)N4CCOCC4)cn3c2=O)cc1F` showed an RP-LC retention time of 811 s.
`Cc1oc(-c2[nH]ncc2C(=O)N(C)C)cc1S(=O)(=O)N1CCN(CC(C)C)CC1`: the RP-LC retention time amounted to 580 s.
The molecule `O=C(NC1CCN(Cc2ccccc2)CC1)c1ccc2c(=O)n3c(nc2c1)CCCC3` gave an RP-LC retention time of 579 s.
`CCOC(=O)C1=C(CN2CCCC(C(=O)OCC)C2)NC(=O)NC1c1ccc(C)cc1` (stereo not given) returned an RP-LC retention time of 674 s.
Take `COc1ccc(Cl)cc1NC(=O)C1CCN(S(=O)(=O)c2cc(C(=O)N(C)C)cs2)CC1`: the RP-LC retention time turned out to be 889 s.
